Assay results from ChEMBL document CHEMBL4834424, “Targeting Chikungunya Virus Replication by Benzoannulene Inhibitors” (J Med Chem, 2021).
Activity calls are given as the source filed them. The rule behind the calls is not given here.

How the values were obtained:
Chikungunya virus [1] = test: (§1) Antiviral activity against CHIKV infected in human NHDF cells assessed as reduction in virus titer in cell supernatant by measuring inhibition of plaque formation using Vero cells at 10 uM pretreated with NHDF cells followed by infected with virus incubated for 24 hrs and measured following infection of supernatants with Vero cells for 48 hrs by plaque based methylene blue dye analysis; type: functional; settings: time 72 hrs
Chikungunya virus [2] = test: as §1, with “cells” for “cells at 10 uM”; type: functional, organism-based
[3] = Cytotoxicity against HEK293 cells at 10 uM; type: cell-based; settings: human
[4] = Cytotoxicity against human NHDF cells assessed as cell viability measured after 24 hrs by Cell Titer Glo luminescent assay; type: cell-based; settings: NHDF cells
[5] = Half life in C57BL/6 mouse at 40 mg/kg, sc; type: ADME, organism-based; settings: in vivo
[6] = Metabolic stability in human liver microsomes assessed as half life in presence of NADPH incubated up to 45 mins by LC-MS/MS analysis; type: ADME, Microsome
Onyong-nyong virus = test: (§2) Antiviral activity against O'nyong-nyong virus infected in Asian tiger mosquito C6/36 cells assessed as reduction in virus titer in cell supernatant by measuring inhibition of plaque formation using Vero cells and measured following infection of supernatants with Vero cells for 48 hrs pi by serial dilution plaque based methylene blue dye analysis; type: functional
[7] = Octanol-aqueous buffer distribution coefficient, log D of the compound by LC-MS analysis; type: physicochemical
Chikungunya virus [8] = test: Antiviral activity against CHIKV infected in C57BL/6 mouse right foot assessed as reduction in serum of contralateral ankles tissue at 80 mg/kg, po pretreated 2 hrs before infection followed treated twice a day for 3 days and measured 12 hr post infection of last dose by dilution plaque assay on Vero cells; type: functional, organism-based; settings: time 86.0 hrs
Chikungunya virus [9] = test: Antiviral activity against CHIKV infected in C57BL/6 mouse right foot assessed as reduction in quadriceps tissue at 80 mg/kg, po pretreated 2 hrs before infection followed treated twice a day for 3 days and measured 12 hr post infection of last dose by dilution plaque assay on Vero cells; type: functional, organism-based; settings: time 86.0 hrs
Mayaro virus = test: Antiviral activity against Mayaro virus TRVL infected in Asian tiger mosquito C6/36 cells assessed as reduction in virus titer in cell supernatant by measuring inhibition of plaque formation using Vero cells and measured following infection of supernatants with Vero cells for 48 hrs pi by serial dilution plaque based methylene blue dye analysis; type: functional
Chikungunya virus [10] = test: Antiviral activity against CHIKV-nLuc RNA transfected NHDF cells assessed as decrease in Nano-luc signal at 20 uM pretreated 24 hrs before transfection in presence of guanosine measured after 24 hrs by Nano-Glo luciferase assay; type: functional, organism-based
West Nile virus = test: as §2, with “West nile” for “O'nyong-nyong”, “HEK293” for “Asian tiger mosquito C6/36”, “at 10 uM” for “and”; type: functional
[11] = AUC in C57BL/6 mouse at 40 mg/kg, sc; type: ADME, organism-based; set-up: dose 40 mg/kg; settings: in vivo
Una virus = test: Antiviral activity against Una virus MAC150 infected in Asian tiger mosquito C6/36 cells assessed as reduction in virus titer in cell supernatant by measuring inhibition of plaque formation using Vero cells and measured following infection of supernatants with Vero cells for 48 hrs pi by serial dilution plaque based methylene blue dye analysis; type: functional
Chikungunya virus [12] = test: Antiviral activity against CHIKV infected in C57BL/6 mouse right foot assessed as reduction in serum of ipsilateral tissue at 80 mg/kg, po pretreated 2 hrs before infection followed treated twice a day for 3 days and measured 12 hr post infection of last dose by dilution plaque assay on Vero cells; type: functional, organism-based; settings: time 86.0 hrs
[13] = system: Venezuelan equine encephalitis virus; test: (§3) Antiviral activity against Venezuelan equine encephalitis virus TC83 infected in human NDHF cells assessed as reduction in virus titer in cell supernatant by measuring inhibition of plaque formation using Vero cells at 10 uM measured following infection of supernatants with Vero cells for 48 hrs pi by serial dilution plaque based methylene blue dye analysis; type: functional, NHDF
Chikungunya virus [14] = test: Antiviral activity against CHIKV-nLuc RNA transfected NHDF cells assessed as decrease in Nano-luc signal at 20 uM pretreated 24 hrs before transfection in presence of uridine measured after 24 hrs by Nano-Glo luciferase assay; type: functional, organism-based; settings: time 48.0 hrs
[15] = Cmax in C57BL/6 mouse at 40 mg/kg, po; type: ADME, organism-based; set-up: route oral, dose 40 mg/kg; settings: in vivo
[16] = Cmax in C57BL/6 mouse at 40 mg/kg, ip; type: ADME, organism-based; set-up: route intraperitoneal, dose 40 mg/kg; settings: in vivo
[17] = Bioavailability in C57BL/6 mouse at 40 mg/kg, ip; type: ADME, organism-based; settings: in vivo
Chikungunya virus [18] = test: Antiviral activity against CHIKV infected in C57BL/6 mouse right foot assessed as reduction in spleen at 80 mg/kg, po pretreated 2 hrs before infection followed treated twice a day for 3 days and measured 12 hr post infection of last dose by dilution plaque assay on Vero cells; type: functional, organism-based; settings: time 86.0 hrs
[19] = Half life in C57BL/6 mouse at 40 mg/kg, ip; type: ADME, organism-based; settings: in vivo
[20] = system: Venezuelan equine encephalitis virus; test: Antiviral activity against Venezuelan equine encephalitis virus TC83 infected in Asian tiger mosquito C6/36 cells assessed as reduction in virus titer in cell supernatant by measuring inhibition of plaque formation using Vero cells and measured following infection of supernatants with Vero cells for 48 hrs pi by serial dilution plaque based methylene blue dye analysis; type: functional
[21] = Oral bioavailability in C57BL/6 mouse at 40 mg/kg; type: ADME, organism-based; settings: in vivo
[22] = Cmax in C57BL/6 mouse at 40 mg/kg, sc; type: ADME, organism-based; set-up: route subcutaneous, dose 40 mg/kg; settings: in vivo
[23] = Half life in C57BL/6 mouse at 1 mg/kg, iv; type: ADME, organism-based; settings: in vivo
[24] = molecular target: Dihydroorotate dehydrogenase (quinone), mitochondrial (Homo sapiens, UniProt Q02127)
Chikungunya virus [25] = test: Antiviral activity against CHIKV infected in C57BL/6 mouse right foot assessed as reduction in site of infection at 80 mg/kg, po pretreated 2 hrs before infection followed treated twice a day for 3 days and measured 12 hr post infection of last dose by dilution plaque assay on Vero cells; type: functional, organism-based; settings: time 86.0 hrs
Chikungunya virus [26] = test: as §2, with “CHIKV 37997” for “O'nyong-nyong virus”; type: functional; settings: Chikungunya virus, 37997, C6
Chikungunya virus [27] = test: as §2, with “CHIKV 99659” for “O'nyong-nyong virus”; type: functional; settings: Chikungunya virus, 99659, C6
[28] = Bioavailability in C57BL/6 mouse at 40 mg/kg, sc; type: ADME, organism-based; settings: in vivo
dengue virus type 2 = test: as §3, with “DENV2” for “Venezuelan equine encephalitis virus TC83”, “HEK293” for “human NDHF”; type: functional
[29] = Toxicity in CHIKV infected in C57BL/6 mouse right foot assessed as body weight change at 80 mg/kg, po pretreated 2 hrs before infection followed treated twice a day for 3 days and measured 12 hr post infection of last dose; type: organism-based; settings: in vivo, 86 h
[30] = AUC in C57BL/6 mouse at 40 mg/kg, po; type: ADME, organism-based; set-up: dose 40 mg/kg; settings: in vivo
[31] = AUC in C57BL/6 mouse at 40 mg/kg, ip; type: ADME, organism-based; set-up: dose 40 mg/kg; settings: in vivo
[32] = Half life in C57BL/6 mouse at 40 mg/kg, po; type: ADME, organism-based; settings: in vivo
[33] = Aqueous solubility of the compound; type: physicochemical; settings: aqueous; read-out: solubility
[34] = AUC in C57BL/6 mouse at 1 mg/kg, iv; type: ADME, organism-based; set-up: dose 1 mg/kg; settings: in vivo
Chikungunya virus [35] = type: functional; settings: 181-25, C6, time 48 hrs
[36] = as §2, with “Ross river” for “O'nyong-nyong”; type: functional; settings: La Crosse virus

Dihydroorotate dehydrogenase (quinone), mitochondrial, sequence (Q02127 whole entry): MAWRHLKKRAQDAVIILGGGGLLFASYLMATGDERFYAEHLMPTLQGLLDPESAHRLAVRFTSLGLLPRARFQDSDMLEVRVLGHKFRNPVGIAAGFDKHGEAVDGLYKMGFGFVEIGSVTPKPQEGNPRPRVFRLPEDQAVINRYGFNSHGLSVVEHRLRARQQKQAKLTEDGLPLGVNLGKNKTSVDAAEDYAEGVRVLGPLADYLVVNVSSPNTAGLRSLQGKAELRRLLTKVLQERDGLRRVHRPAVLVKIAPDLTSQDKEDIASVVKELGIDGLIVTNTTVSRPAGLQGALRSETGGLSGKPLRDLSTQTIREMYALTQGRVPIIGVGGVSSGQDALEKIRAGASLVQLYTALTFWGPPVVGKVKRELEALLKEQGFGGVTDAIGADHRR

CC(C)(C)c1ccc(NC(=O)c2ccc3c(c2)CCCCC3)cc1
log(activity) (Chikungunya virus [1]): 4.2 | EC50 (Chikungunya virus [2]): 7000 nM | CC50 [3]: > 30000 nM | CC50 at 24 h [4]: > 30000 nM

COc1cc2c(cc1C(=O)Nc1ccc(C(C)(C)C#N)cc1)CCCCC2
half-life [5]: 18.6 h | half-life [6]: 132 h | EC90 (Onyong-nyong virus): 890 nM | logD [7]: > 4.4 | Activity (Chikungunya virus [8]): inactive | Activity (Chikungunya virus [9]): Active | EC90 (Mayaro virus): 2300 nM | log(activity) (Chikungunya virus [1]): 4.5 | Activity (Chikungunya virus [10]): Active | log(activity) (West Nile virus): 3.4 | AUC [11]: 744 ng·h/mL | EC90 (Una virus): 2500 nM | Activity (Chikungunya virus [12]): inactive | log(activity) [13]: 3.1 | EC50 (Chikungunya virus [2]): 270 nM | Activity (Chikungunya virus [14]): inactive | Cmax [15]: 642 ng/mL | Cmax [16]: 858 ng/mL | bioavailability [17]: 43% | Activity (Chikungunya virus [18]): Active | half-life [19]: 18.5 h | EC90 [20]: 2100 nM | bioavailability [21]: 41% | Cmax [22]: 90 ng/mL | half-life [23]: 2.02 h | IC50 [24]: 310 nM | Activity (Chikungunya virus [25]): inactive | EC90 (Chikungunya virus [26]): 1500 nM | EC90 (Chikungunya virus [27]): 1100 nM | bioavailability [28]: 4% | log(activity) (dengue virus type 2): 2 | CC50 [3]: > 30000 nM | Activity [29]: Non-Toxic | AUC [30]: 7950 ng·h/mL | AUC [31]: 8570 ng·h/mL | half-life [32]: 9.9 h | solubility [33]: < 1 µM | CC50 at 24 h [4]: > 30000 nM | AUC [34]: 497 ng·h/mL | EC90 (Chikungunya virus [35]): 980 nM | EC90 [36]: 850 nM
